Experimental findings from US20130040951A9, “PROPHYLACTIC OR THERAPEUTIC AGENT FOR CANCER” (Takeda Pharmaceutical Company Limited, priority 2009, published 2013) are described below.

Assay [1] concerns the target T1, fusion protein containing GAL4-DNA-binding domain and ERR full-length (Homo sapiens, UniProt P11474).
T1 construct: expressed in transfected cells; host or cells: 293T cells
T1 sequence (P11474 1-423): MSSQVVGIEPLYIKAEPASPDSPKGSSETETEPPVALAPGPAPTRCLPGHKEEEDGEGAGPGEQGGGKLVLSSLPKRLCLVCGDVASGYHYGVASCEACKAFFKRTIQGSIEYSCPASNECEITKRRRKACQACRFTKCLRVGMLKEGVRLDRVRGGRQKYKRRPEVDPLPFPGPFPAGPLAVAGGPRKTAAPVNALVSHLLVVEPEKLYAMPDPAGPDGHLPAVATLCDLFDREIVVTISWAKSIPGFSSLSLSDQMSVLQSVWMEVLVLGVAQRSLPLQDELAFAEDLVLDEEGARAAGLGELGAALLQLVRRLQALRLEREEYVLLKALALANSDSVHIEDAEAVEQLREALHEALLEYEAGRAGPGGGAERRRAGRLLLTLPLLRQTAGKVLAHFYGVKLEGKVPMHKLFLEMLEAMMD
Nature of the assay: Reporter assay system using 293T cells (GAL4-ERR luciferase, inverse agonist activity). The assay is classed as cell-based. To be noted: HEK-293T; compound final concentration 3 μM, 1 day; luciferase activity in 293T cells; no compound = 0%, 10 μM XCT-790 = 100%; read-out: inhibition rate (%) at 3 μM. Here is the method: Compound Evaluation in Reporter Assay System Using 293T Cells
293T cells were seeded in a 150 cm^2 flask by 6,000,000 cells, and cultured in a medium (DMEM medium containing 10% inactivated Fetal Bovine Serum sterile filtered (FBS), 50 μg/ml Gentamicin, 10 mM HEPES buffer (pH 7.4)) at 37° C. in the presence of 5% CO2 for 1 day.
Then, vector DNA having a gene encoding a fusion protein containing GAL4-DNA-binding domain and ERR full-length and a vector DNA wherein luciferase gene is fused at the downstream of GAL4-binding sequence were cotransfected by a lipofection method, and the cells were cultured at 37° C. in the presence of 5% CO2 for 1 day. The cells were recovered, sown in a 384 well plate by 15,000 cells, and cultured at 37° C. in the presence of 5% CO2 for 3 hr. Furthermore, 50 μM XCT-790 (final concentration 10 μM) or 15 μM compound (final concentration 3 μM) was added, and the cells were cultured at 37° C. in the presence of 5% CO2 for 1 day. The luciferase activity was measured by using a multiplate reader Envision (Perkin Elmer Inc.). The inverse agonist activity of the compound was calculated in percentage with the luciferase activity inhibited by no addition of compound as 0%, and with addition of final concentration 10 μM of XCT-790 (N-[5-(trifluoromethyl)-1,3,4-thiadiazol-2-yl]-2-cyano-3-[3-methoxy-4-[2,4-di(trifluoromethyl)benzyloxy]phenyl]propenamide) as 100%.

Assay [2] deals with T2, GST-ERRα ligand-binding domain (Homo sapiens, UniProt P11474).
T2 sequence (P11474 193-421 limits assumed): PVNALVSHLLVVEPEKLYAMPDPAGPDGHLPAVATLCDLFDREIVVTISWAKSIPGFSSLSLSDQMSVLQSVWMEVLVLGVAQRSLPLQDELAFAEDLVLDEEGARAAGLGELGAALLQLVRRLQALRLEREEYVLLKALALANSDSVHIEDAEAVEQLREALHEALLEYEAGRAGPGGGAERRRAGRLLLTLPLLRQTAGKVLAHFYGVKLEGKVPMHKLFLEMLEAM
Nature of the assay: HTRF assay system using ERRα ligand-binding domain (biotinylated SRC-1 (676-700) peptide). The assay is classed as biochemical. The note with it: compound final concentration 3 μM, room temperature 2 hr; 615/665 ratio value; no compound = 0%, 10 μM XCT-790 = 100%; read-out: inhibition rate (%) at 3 μM. As to the method:
Compound Evaluation in HTRF Assay System Using ERRα Ligand-Binding Domain
An assay buffer (25 mM HEPES, 100 mM NaCl, 1 mM DTT, 0.1% BSA) containing 5 nM GST-ERRα ligand-binding domain (final concentration 1.25 nM) was added to a 384 well plate, then […] XCT-790 (final concentration 10 μM), or 12 μM compound (final concentration 3 μM) was added. Furthermore, an assay buffer containing XL665 conjugated Streptavidine, Eu^3+criptate conjugated GST antibody and 200 nM biotinylated SRC-1 (676-700) (final concentration 100 nM) was added, and the mixture was reacted at room temperature for 2 hr. Using Multiplate reader Envision (Perkin Elmer Inc.), after excitation at 320 nm, fluorescence values at 615 nm and 665 nm were measured. The inverse agonist activity of the compound was calculated in percentage with the 615/665 ratio value inhibited by no addition of compound as 0%, and with addition of final concentration 10 μM of XCT-790 (N-[5-(trifluoromethyl)-1,3,4-thiadiazol-2-yl]-2-cyano-3-[3-methoxy-4-[2,4-di(trifluoromethyl)benzyloxy]phenyl]propenamide) as 100%.
A general note: TR-FRET usually uses a lanthanide donor and a delayed reading to cut background.

The subject of assay [3] is ES-2 ovarian cancer cells. Nature of the assay: Cell proliferation inhibitory test (CCK-8). The assay is classed as cell-based. The note with it: compound final concentration 10 μM, 72 hr; CCK-8 absorbance at 450 nm; DMSO alone = 0%, cell-free well with medium only = 100%; read-out: inhibition rate (%) at 10 μM. Here is the method:
Cell Proliferation Inhibitory Test
ES-2 ovarian cancer cells were seeded in a 96 well plate at 1×10^3 cells/well, and incubated at 37° C. in the presence of 5% CO2 for 24 hr. Then, the compound was added at a final concentration of 10 μM, and the cells were cultured at 37° C. in the presence of 5% CO2 for 72 hr. For activity measurement of viable cells, a CCK-8 reagent (Cell Counting Kit-8, DOJINDO) was added, the cells were incubated at 37° C. for 1.5 hr, and the absorbance at 450 nm was measured by a microplate reader. Assuming the dehydrogenase activity in the DMSO alone addition group as 0%, and that in a cell-free well containing only a medium as 100%, the dehydrogenase activity of the compound addition group was calculated in percentage.

Regarding `CCN1C(=N)/C(=C/c2ccc(OCc3ccc(C(F)(F)F)cc3C(F)(F)F)c(OC)c2)N(C)C1=O` [Example 32, (4Z)-4-[(4-{[2,4-bis(trifluoromethyl)benzyl]oxy}-3-methoxyphenyl)methylidene]-1-ethyl-5-imino-3-methylimidazolidin-2-one], the inhibition (in general, the relative decrease from the control value, in per cent) at 3 µM turned out to be 91% in assay [1] and 103% in assay [2]. Also, the inhibition at 10 µM in assay [3] is 98%.

For `COc1cc(/C=C2\SC(=O)N=C2NCCC2CCCN2C)ccc1Oc1ccc(C#N)cc1C(F)(F)F` (stereo not drawn) [Example 93, 4-(2-methoxy-4-{(Z)-[4-{[2-(1-methylpyrrolidin-2-yl)ethyl]amino}-2-oxo-1,3-thiazol-5(2H)-ylidene]methyl}phenoxy)-3-(trifluoromethyl)benzonitrile], the results for the inhibition at 3 µM in assay [1] and in assay [2] were 88% and 105%, respectively. Further, in assay [3], the inhibition at 10 µM is 101%.

In the case of `CCN1C(=N)/C(=C/c2ccc(Oc3ccc(C#N)cc3C(F)(F)F)c(OC)c2)N(C)C1=O` [Example 145, 4-{4-[(Z)-(1-ethyl-5-imino-3-methyl-2-oxoimidazolidin-4-ylidene)methyl]-2-methoxyphenoxy}-3-(trifluoromethyl)benzonitrile], the inhibition at 3 µM in assay [1] amounted to 95%; in assay [2], 93%. Besides, the inhibition at 10 µM in assay [3] was 98%.

Take `CCN1C(=N)/C(=C\c2ccc(Oc3ccc(C#N)cc3C(F)(F)F)c(OC)c2)N(C)C1=O` [Example 143, 4-{4-[(E)-(1-ethyl-5-imino-3-methyl-2-oxoimidazolidin-4-ylidene)methyl]-2-methoxyphenoxy}-3-(trifluoromethyl)benzonitrile]: the results for the inhibition at 3 µM in assay [1] and in assay [2] were 94% and 92%, respectively. Besides, in assay [3], the inhibition at 10 µM was determined as 88%.

For the compound `CCN(CC)CCNC1=NC(=O)S/C1=C\c1ccc(Oc2ccc(C(F)(F)F)cc2Cl)c(OC)c1` [Example 94, (5Z)-5-({4-[2-chloro-4-(trifluoromethyl)phenoxy]-3-methoxyphenyl}methylidene)-4-{[2-(diethylamino)ethyl]amino}-1,3-thiazol-2(5H)-one], the inhibition at 3 µM in assay [1] worked out at 90%; in assay [2], 107%. The inhibition at 10 µM in assay [3] is 100%.

As for `COc1cc(/C=C2\SC(=O)N=C2NCC(C)(C)O)ccc1Oc1ccc(C#N)cc1C(F)(F)F` [Example 116, 4-{4-[(Z)-{4-[(2-hydroxy-2-methylpropyl)amino]-2-oxo-1,3-thiazol-5(2H)-ylidene}methyl]-2-methoxyphenoxy}-3-(trifluoromethyl)benzonitrile], the inhibition at 3 µM in assay [1] was 93%; in assay [2], 105%. The inhibition at 10 µM in assay [3] turned out to be 101%.

`COc1cc(/C=C2\SC(=O)N=C2NCCC2CCCN2C)ccc1Oc1ccc(C#N)c2ccccc12` (stereo not drawn) [Example 96, 4-(2-methoxy-4-{(Z)-[4-{[2-(1-methylpyrrolidin-2-yl)ethyl]amino}-2-oxo-1,3-thiazol-5(2H)-ylidene]methyl}phenoxy)naphthalene-1-carbonitrile]: the inhibition at 3 µM amounted to 87% in assay [1] and 114% in assay [2]. Besides, the inhibition at 10 µM in assay [3] came to 102%.

`CCN1C(=N)/C(=C/c2ccc(Oc3ccc(C#N)cc3C(F)(F)F)c(OC)c2)NC1=O` [Example 25, 4-{4-[(Z)-(1-ethyl-5-imino-2-oxoimidazolidin-4-ylidene)methyl]-2-methoxyphenoxy}-3-(trifluoromethyl)benzonitrile]: the inhibition at 3 µM in assay [1] was determined as 89%; in assay [2], 98%. For the same compound, the inhibition at 10 µM in assay [3] worked out at 61%.
